In PMC9995496, “A screen for MeCP2-TBL1 interaction inhibitors using a luminescence-based assay” (Scientific Reports, 2023):
Where a name gives a salt, the structure may show the parent alone. Read-outs that look alike come from different tables or passages of the source.

Tested on: PRKACA-PRKAR2A interaction (SmBiT-PRKACA / LgBiT-PRKAR2A), protein kinase A
Design: NanoLuc complementation counter-screen in cell extract, PRKACA with PRKAR2A, loss of luminescence, detects NanoLuc interference
Details: counter-screen for NanoLuc interference, 0.5 h, 20 µM, inhibitor

| SMILES | Inh (PKA) [%] | Inh (PKA) (Inh (PKA)) [%] |
| --- | --- | --- |
| CC(=O)[C@]1(N)Cc2c(O)c3c(c(O)c2[C@@H](O[C@H]2C[C@H](O)[C@H](O)CO2)C1)C(=O)c1ccccc1C3=O [UM0141961:01, Amrubicin] | 25.46 |  |
| c1ccc2c(Oc3nc(Nc4ccc(N5CCOCC5)cc4)c4ncn(C5CCCCC5)c4n3)cccc2c1 [UM0141962:01, Purmorphamine] | 11.44 |  |
| CCCC(=O)Nc1cccc(NC(=O)c2ccccc2Br)c1 [UM0141963:01, ML161] | 3.147 |  |
| Cc1ccc2c(=O)c3cccc(CC(=O)O)c3oc2c1C [UM0141964:01, DMXAA (Vadimezan)] | 2.691 |  |
| CNC(=O)c1cc(Oc2ccc(NC(=O)c3cccc(C(F)(F)F)c3)cc2)ccn1 [UM0141965:01, SKLB610] | 8.796 |  |
| CCO[C@@H]1OC(=O)C[C@@H]1NC(=O)[C@@H]1CCCN1C(=O)[C@@H](NC(=O)c1ccc(N)c(Cl)c1)C(C)(C)C [UM0141966:01, VX-765] | 0.4442 |  |
| CCCNC(=O)[C@H]1O[C@@H]1C(=O)N[C@H](C(=O)N1CCC[C@H]1C(=O)OC)[C@@H](C)CC [UM0141967:01, CA-074 Me] | -0.4464 |  |
| FC(F)c1nc2ccccc2n1-c1nc(N2CCOCC2)nc(N2CCOCC2)n1 [UM0141969:01, ZSTK474] | 3.548 |  |
| NC(=O)c1ccc(-c2nc(-c3ccccn3)c(-c3ccc4c(c3)OCO4)[nH]2)cc1 [UM0141970:01, SB 431542] | 22.36 |  |
| COc1cc(N2CCC(N3CCN(C)CC3)CC2)ccc1Nc1ncc(Cl)c(Nc2ccccc2S(=O)(=O)C(C)C)n1 [UM0141971:01, TAE684 (NVP-TAE684)] | 23 |  |
| COC(=O)c1ccc2c(c1)NC(=O)/C2=C(\Nc1ccc(N(C)C(=O)CN2CCN(C)CC2)cc1)c1ccccc1 [UM0141972:01, Nintedanib (BIBF 1120)] | 17.71 |  |
| CCN(CC)CCNC(=O)c1c(C)[nH]c(/C=C2\C(=O)Nc3ccc(F)cc32)c1C [UM0141973:01, Sunitinib malate] | 55.62 |  |
| Cc1cc(C)nc(NS(=O)(=O)c2ccc(NC(=S)NC(=O)COc3ccc(Br)cc3Cl)cc2)n1 [UM0141974:01, ZCL278] | 9.562 |  |
| CN(C)CCCCC(=O)Nc1ccc(NC(=S)NC(=O)c2ccc(C(C)(C)C)cc2)cc1 [UM0141976:01, Tenovin-6] | 9.354 |  |
| Cc1ccc(NC(=O)Nc2cc(C(F)(F)F)ccc2F)cc1Nc1ccc2c(c1)NC(=O)/C2=C\c1ccc[nH]1 [UM0141977:01, GNF-5837] | 11.58 |  |
| CNC(=O)c1ccc(C)c(-n2c(C)cc(OCc3ccc(F)cc3F)c(Br)c2=O)c1 [UM0141978:01, PH-797804] | 5.099 |  |
| CN(c1ncccc1CNc1nc(Nc2ccc3c(c2)CC(=O)N3)ncc1C(F)(F)F)S(C)(=O)=O [UM0141980:01, PF-562271] |  | 55.16 |

| SMILES | Inh (PKA) [%] | Inh (PKA) (Inh (PKA)) [%] |
| --- | --- | --- |
| CCC(=O)N1CCN(c2ccc(-n3c(=O)ccc4cnc5ccc(-c6cnc7ccccc7c6)cc5c43)cc2C(F)(F)F)CC1 [UM0141981:01, Torin 1] | 8.063 |  |
| Cn1c(Nc2ccc(C(F)(F)F)cc2)nc2cc(Oc3ccnc(-c4ncc(C(F)(F)F)[nH]4)c3)ccc21 [UM0141982:01, RAF265] | 1.298 |  |
| CC(=O)c1c(C)c2cnc(Nc3ccc(N4CCNCC4)cn3)nc2n(C2CCCC2)c1=O [UM0141983:01, PD 0332991 (Palbociclib) HCl] |  | 11.32 |
| COc1cc2ncnc(Nc3ccc(F)c(Cl)c3)c2cc1NC(=O)/C=C/CN1CCCCC1 [UM0141985:01, Dacomitinib (PF299804, PF299)] | 10.53 |  |
| CN(c1ncccc1CNc1nc(Nc2ccc3c(c2)CC(=O)N3)ncc1C(F)(F)F)S(C)(=O)=O [UM0141986:01, PF-00562271] |  | 56.79 |
| CCOc1cc2ncc(C#N)c(Nc3ccc(OCc4ccccn4)c(Cl)c3)c2cc1NC(=O)/C=C/CN(C)C [UM0141987:01, Neratinib (HKI-272)] | 9.342 |  |
| CCC[C@H](NC(=O)/C(C#N)=C/c1cccc(Br)n1)c1ccccc1 [UM0141988:01, WP1130] | 8.904 |  |
| c1ccc2c(-c3cnn4cc(-c5ccc(N6CCNCC6)cc5)cnc34)ccnc2c1 [UM0141989:01, LDN-193189] |  | 1.838 |
| O=C1NC(=O)[C@@H](c2cn3c4c(cccc24)CCC3)[C@@H]1c1c[nH]c2ccccc12 [UM0141990:01, Tivantinib (ARQ 197)] | 34.28 |  |
| Cc1ncc(-c2ccnc(Nc3ccc(S(C)(=O)=O)cc3)n2)n1C(C)C [UM0141991:01, AZD-5438] | 13.33 |  |
| Cc1cc(Nc2ncc(Cl)c(Nc3ccccc3S(=O)(=O)C(C)C)n2)c(OC(C)C)cc1C1CCNCC1 [UM0141993:01, LDK378] | 11.01 |  |
| Nc1nc(Nc2ccc3c(c2)CCC(N2CCCC2)CC3)nn1-c1cc2c(nn1)-c1ccccc1CCC2 (stereo not shown) [UM0141994:01, R428] | 28.03 |  |
| O=C(O)c1ccc2c(c1)nc(Nc1cccc(Cl)c1)c1ccncc12 [UM0141995:01, CX-4945 (Silmitasertib)] | 36.81 |  |
| COc1cc(Nc2ncc(F)c(Nc3ccc4c(n3)N(COP(=O)(O)O)C(=O)C(C)(C)O4)n2)cc(OC)c1OC [UM0141996:01, R788 disodium] |  | 11.53 |
| Cc1ccc([C@@H]2O[C@H](CO)[C@@H](O)[C@H](O)[C@H]2O)cc1Cc1ccc(-c2ccc(F)cc2)s1 [UM0141997:01, Canagliflozin] | 13.33 |  |
| C[C@]1(O)C[C@@H](c2nc(-c3ccc4ccc(-c5ccccc5)nc4c3)c3c(N)nccn32)C1 [UM0141998:01, Linsitinib] | 15.97 |  |
| O=c1[nH]c2ccc(Cl)cc2c(N[C@@H]2CN3CCC2CC3)c1-c1nc2ccccc2[nH]1 [UM0142025:01, CHIR-124] | 30.1 |  |

Now from value to molecule:

| Inh (PKA) [%] | Inh (PKA) (Inh (PKA)) [%] | SMILES |
| --- | --- | --- |
|  | 9.751 | CC(=O)c1c(C)c2cnc(Nc3ccc(N4CCNCC4)cn3)nc2n(C2CCCC2)c1=O [UM0141999:01, Palbociclib (PD0332991) Isethionate] |
| 8.664 |  | C[C@@H]1CN(CC(=O)Nc2ccc3c(c2)Cc2cccc(-c4cc(=O)cc(N5CCOCC5)o4)c2S3)C[C@H](C)O1 [UM0142000:01, KU-60019] |
| 4.891 |  | Cc1cnc(CNC(=O)c2c(=O)c3ccc(N4CCCN(C)CC4)nc3n3c2sc2ccccc23)cn1 [UM0142001:01, CX-5461] |
| 1.866 |  | Cc1ccc(S(=O)(=O)OCC(=O)Nc2ccc(C(=O)O)c(O)c2)cc1 [UM0142002:01, NSC 74859] |
|  | 48.82 | CN(c1ncccc1CNc1nc(Nc2ccc3c(c2)CC(=O)N3)ncc1C(F)(F)F)S(C)(=O)=O [UM0142004:01, PF-562271 HCl] |
| 2.69 |  | Cc1nc(NC(=O)N2CCC[C@H]2C(N)=O)sc1-c1ccnc(C(C)(C)C(F)(F)F)c1 [UM0142005:01, BYL-719] |
|  | 14.36 | Cc1ccc(Nc2nccc(N(C)c3ccc4c(C)n(C)nc4c3)n2)cc1S(N)(=O)=O [UM0142006:01, Pazopanib Hydrochloride] |
| 1.976 |  | Cc1cccc(-c2nn3c(c2-c2ccnc4ccc(C(N)=O)cc24)CCC3)n1 [UM0142007:01, LY2157299] |
| 3.022 |  | COC(=O)N1CCN(Cc2cccc(NC(=O)Nc3ccc(C)nc3)c2F)CC1 [UM0142008:01, Omecamtiv mecarbil] |
| 12.3 |  | COc1cc(CCc2cc(NC(=O)c3ccc(N4C[C@@H](C)N[C@@H](C)C4)cc3)n[nH]2)cc(OC)c1 [UM0142009:01, AZD4547] |
| 21.09 |  | Cc1ccc(NC(=O)C2(c3ccc4c(c3)OC(F)(F)O4)CC2)nc1-c1cccc(C(=O)O)c1 [UM0142010:01, VX-809] |
| 0.4537 |  | Cn1cnc(N)c2ncnc1-2 [UM0142011:01, 3-Methyladenine] |
| -0.9072 |  | Oc1ncnc2[nH]ncc12 [UM0142014:01, Allopurinol] |
| 1.414 |  | CC1CNc2c(cccc2S(=O)(=O)N[C@@H](CCCNC(=N)N)C(=O)N2CC[C@@H](C)C[C@@H]2C(=O)O)C1 (stereo partly shown) [UM0142015:01, Argatroban] |
| 2.375 |  | CNC(=O)c1ccc(N2C(=S)N(c3cnc(C#N)c(C(F)(F)F)c3)C(=O)C23CCC3)cc1F [UM0142016:01, ARN-509] |
| 12.53 |  | C=CC(=O)Nc1ccc2ncnc(Nc3ccc(OCc4cccc(F)c4)c(Cl)c3)c2c1 [UM0142018:01, AST-1306] |
| 7.565 |  | CNC(=O)c1cccc(-c2ccc3c(N4CCOC[C@@H]4C)nc(N4CCOC[C@@H]4C)nc3n2)c1 [UM0142021:01, AZD2014] |
| 6.017 |  | CNC(=O)CN1CCC(Oc2cc3c(Nc4cccc(Cl)c4F)ncnc3cc2OC)CC1 [UM0142022:01, AZD8931 (Sapitinib)] |
|  | 4.293 | CCCCCCOC(=O)NC(=N)c1ccc(NCc2nc3cc(C(=O)N(CCC(=O)OCC)c4ccccn4)ccc3n2C)cc1 [UM0142023:01, BIBR-1048] |
| 6.004 |  | CCCCOc1c(C(=O)c2c(F)cc(C)cc2F)c[nH]c2nncc1-2 [UM0142024:01, BMS265246] |
| 80.31 |  | Nc1nc(NCCNc2ncc(-n3ccnc3)c(-c3ccc(Cl)cc3Cl)n2)ccc1[N+](=O)[O-] [UM0142026:01, CHIR-98014] |
| 53.3 |  | CN(C)C(=O)[C@H](O)[C@H](Cc1ccccc1)NC(=O)c1cc2cc(Cl)ccc2[nH]1 [UM0142029:01, CP-91149] |
| -1.093 |  | O=c1[nH]cnc2c1ncn2[C@H]1CC[C@@H](CO)O1 [UM0142031:01, Didanosine] |
| 1.224 |  | CCc1cnn2c(NCc3ccc[n+]([O-])c3)cc(N3CCCC[C@H]3CCO)nc12 [UM0142032:01, Dinaciclib (SCH727965)] |
| -0.1542 |  | CN(CCOc1ccc(NS(C)(=O)=O)cc1)CCc1ccc(NS(C)(=O)=O)cc1 [UM0142033:01, Dofetilide] |
|  | 16.9 | CN1CCN(c2ccc3nc(-c4c(N)c5c(F)cccc5[nH]c4=O)[nH]c3c2)CC1 [UM0142034:01, Dovitinib Dilactic acid] |
| 1.453 |  | CCN1CC(CCN2CCOCC2)C(c2ccccc2)(c2ccccc2)C1=O (stereo not shown) [UM0142035:01, Doxapram HCl] |
